# Patent US20220023317A1, “PREVENTING OR MITIGATING CHEMOTHERAPY INDUCED ALOPECIA USING VITAMIN D” (Berg LLC, priority 2013, published 2022)
# Assays:
# HEKa cells = assay: Keratinocyte growth with calcitriol titration; type: cell-based, human; conditions: titration 0.008-2.0 μg/mL
# Procedure: All experiments were conducted in 96-well plate format. Each well contained the same amount of HEKa cells in about 100 μL of media (usually between 2,000-5,000 cell/well). Calcitriol was dissolved in ethanol to make a stock solution. The stock solution was serially diluted 1:2 in the growth media, covering a range of between 4.0 μg/mL to about 15.5 ng/mL (9 test concentrations). […] All experiments were conducted in duplicates.
# C3H/HeJ mouse = assay: C3H/HeJ model of alopecia areata; type: in vivo; conditions: 0.2 μg for 15 days, observed 30 days
# Procedure: C3H/HeJ Model of Abpecia Areata. Retired breeders (8 months of age) were observed daily for the development of AA lesions. […] One group received ethanol vehicle control whereas the other received 0.2 μg 1,25(OH)2D3 in the alopecic lesions for 15 days.
# [1] = tested on: MIAC51 (chloroleukemia cells); assay: Rats transplanted with chloroleukemia MIAC51, CTX with topical calcitriol; type: in vivo, rat; conditions: cyclophosphamide, preliminary results
# Procedure: For experiments in which rats were transplanted with chloroleukemia, on Day 5 after birth, rats were randomly divided into three groups of 45 each. All rats received 1×10^5 chloroleukemic cell line MIAC51 (i.p.) in 0.1 mL of serum free (SF) RPMI. MIAC51 were cultured in RPMI 1640 supplemented with L-glutamine and 10% fetal bovine serum at 37° C. in a 5% CO2, 100% humidity incubator. Cells were grown to 50% confluency (1.5×106 mL) collected in 50 mL conical tubes, centrifuged at 600 g×10 min. at room temperature and resuspended in SF-RPMI at a concentration of 1×10^6/mL. Group 1 rats received no further treatment. Group 2 rats received topical vehicle and CTX on day 13. […] Topical applications were performed as described above.
# On day 23 after birth, a sample of blood was taken from all rats and differentials performed. Rats with leukemia were sacrificed, rats without leukemia were kept and a second differential performed on day 31, at any point if leukemia was detected, animals were sacrificed by CO2 asphyxiation.
smiles,measurement,setting,value
"C=C1/C(=C\C=C2/CCC[C@]3(C)[C@@H]([C@H](C)CCCC(C)(C)O)CC[C@@H]23)C[C@@H](O)C[C@@H]1O [Calcitriol, (1a.3B.5Z.7E)-9,10-secocholesta-5,7,10(19)-triene-1,3,25-triol]",stimulation of HEKa cell growth,HEKa cells; lowest levels of calcitriol,10-20%
same,calcitriol concentration at which cell growth is inhibited,HEKa cells,≥ 1.0 µg/mL
same,regrowth of hair in alopecic lesions,C3H/HeJ mouse,No regrowth of hair
same,protection of the cancer cells from chemotherapy,[1],have not shown protection of the cancer cells
